Measured values taken from US8785470B2, “Heterocyclic compounds and uses thereof” (Infinity Pharmaceuticals, Inc., priority 2011, dated 2014).
Read-outs that look alike come from different tables or passages of the source.

What was measured:
PI3Kα = target: T1, PI3Kα (Homo sapiens, UniProt P42336); experiment: PI3-Kinase HTRF assay, PI3Kα; assay type: biochemical; settings: bins Greater than 10 μM and Greater than 1 μM to 10 μM; 10 μM ATP, PIP2 at 10 μM; read-out: IC50 P13Kα
T1 construct: purchased Millipore Corporation 14-602-K
Text: A PI3-Kinase HTRF® assay kit (cat No. 33-016) purchased from Millipore Corporation was used to screen compounds provided herein. This assay used specific, high affinity binding of the GRPI pleckstrin homology (PH) domain to PIP3, the product of a Class 1A or 1B PI3 Kinase acting on its physiological substrate PIP2. During the detection phase of the assay, a complex was generated between the GST-tagged PH domain and biotinylated short chain PIP3. The biotinylated PIP3 and the GST-tagged PH domain recruited fluorophores (Streptavidin-Allophycocyanin and Europium-labeled anti-GST respectively) to form the fluorescence resonance energy transfer (FRET) architecture, generating a stable time-resolved FRET signal. The FRET complex was disrupted in a competitive manner by non-biotinylated PIP3, a product formed in the PI3 Kinase assay.
PI3 Kinase α, β, γ and δ activity was assayed using the PI3 Kinase HTRF® assay kit (catalogue No. 33-016) purchased from Millipore Corporation. Purified recombinant PI3Kα (catalogue No. 14-602-K), PI3Kβ (catalogue No. 14-603-K), PI3Kγ (catalogue No. 14-558-K) and PI3Kδ (catalogue No. 14-604-K) were obtained from Millipore Corporation. Purified recombinant PI3K enzyme was used to catalyze the phosphorylation of phosphatidylinositol 4,5-bisphosphate (PIP2 at 10 μM) to phosphatidylinositol 3,4,5-trisphosphate (PIP3) in the presence of 10 μM ATP. The assay was carried out in 384-well format and detected using a Perkin Elmer EnVision Xcite Multilabel Reader. Emission ratios were converted into percent inhibitions and imported into GraphPad Prism software. The concentration necessary to achieve inhibition of enzyme activity by 50% (IC50) was calculated using concentrations ranging from 20 μM to 0.1 nM (12-point curve). IC50 values were determined using a nonlinear regression model available in GraphPad Prism 5. […]

Balb/c splenic B cells = experiment: B cell activation and proliferation assay; assay type: cell-based; settings: Mus musculus, read-out: B cell proliferation EC50
Experimental: The ability of one or more subject compounds to inhibit B cell activation and proliferation is determined according to standard procedures known in the art. For example, an in vitro cellular proliferation assay is established that measures the metabolic activity of live cells. The assay is performed in a 96 well microtiter plate using Alamar Blue reduction. Balb/c splenic B cells are purified over a Ficoll-Paque™ PLUS gradient followed by magnetic cell separation using a MACS B cell Isolation Kit (Miletenyi). Cells are plated in 90 μl at 50.000 cells/well in B Cell Media (RPMI+10% FBS+Penn/Strep+50 μME5 mM HEPES). A compound provided herein is diluted in B Cell Media and added in a 10 μl volume. Plates are incubated for 30 min at 37° C. and 5% CO2 (0.2% DMSO final concentration). A 50 μl B cell stimulation cocktail is then added containing either 10 μg/ml LPS or 5 μg/ml F(ab′)2 Donkey anti-mouse IgM plus 2 ng/ml recombinant mouse IL4 in B Cell Media. Plates are incubated for 72 hours at 37° C. and 5% CO2. A volume of 15 μL of Alamar Blue reagent is added to each well and plates are incubated for 5 hours at 37° C. and 5% CO2. Alamar Blue fluoresce is read at 560Ex/590Em, and IC50 or EC50 values are calculated using GraphPad Prism 5.

[1] = column bins 1 μM to 100 nM (given as 100-1000) and Less than 100 nM

T1 sequence (P42336 whole entry): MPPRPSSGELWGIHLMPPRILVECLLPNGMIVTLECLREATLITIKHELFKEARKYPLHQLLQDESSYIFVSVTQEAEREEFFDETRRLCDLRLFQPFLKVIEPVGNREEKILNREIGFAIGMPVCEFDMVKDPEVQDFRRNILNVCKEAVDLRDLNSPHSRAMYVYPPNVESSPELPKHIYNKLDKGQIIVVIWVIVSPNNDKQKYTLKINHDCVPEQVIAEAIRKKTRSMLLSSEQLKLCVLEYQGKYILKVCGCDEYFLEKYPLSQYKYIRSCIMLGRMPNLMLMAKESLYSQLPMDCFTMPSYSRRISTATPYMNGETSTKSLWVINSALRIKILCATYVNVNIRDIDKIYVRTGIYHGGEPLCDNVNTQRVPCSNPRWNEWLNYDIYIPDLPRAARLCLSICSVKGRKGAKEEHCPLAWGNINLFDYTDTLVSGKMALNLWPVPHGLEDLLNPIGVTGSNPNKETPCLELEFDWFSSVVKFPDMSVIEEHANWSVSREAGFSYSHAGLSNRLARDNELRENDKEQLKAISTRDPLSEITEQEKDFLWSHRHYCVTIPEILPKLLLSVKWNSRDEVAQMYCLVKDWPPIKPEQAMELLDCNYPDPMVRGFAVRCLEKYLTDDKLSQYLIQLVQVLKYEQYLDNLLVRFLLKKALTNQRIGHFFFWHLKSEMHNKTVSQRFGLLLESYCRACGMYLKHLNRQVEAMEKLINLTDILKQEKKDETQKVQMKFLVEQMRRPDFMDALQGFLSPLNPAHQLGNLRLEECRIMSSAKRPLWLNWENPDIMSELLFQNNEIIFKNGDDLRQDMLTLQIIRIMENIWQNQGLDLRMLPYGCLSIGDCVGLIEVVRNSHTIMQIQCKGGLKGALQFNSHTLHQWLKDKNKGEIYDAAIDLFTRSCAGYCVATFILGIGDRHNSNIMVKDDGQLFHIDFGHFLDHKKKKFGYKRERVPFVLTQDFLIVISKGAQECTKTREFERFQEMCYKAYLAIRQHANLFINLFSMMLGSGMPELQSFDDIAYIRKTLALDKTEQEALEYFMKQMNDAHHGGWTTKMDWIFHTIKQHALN
T1 sequence (P27986 whole entry partner): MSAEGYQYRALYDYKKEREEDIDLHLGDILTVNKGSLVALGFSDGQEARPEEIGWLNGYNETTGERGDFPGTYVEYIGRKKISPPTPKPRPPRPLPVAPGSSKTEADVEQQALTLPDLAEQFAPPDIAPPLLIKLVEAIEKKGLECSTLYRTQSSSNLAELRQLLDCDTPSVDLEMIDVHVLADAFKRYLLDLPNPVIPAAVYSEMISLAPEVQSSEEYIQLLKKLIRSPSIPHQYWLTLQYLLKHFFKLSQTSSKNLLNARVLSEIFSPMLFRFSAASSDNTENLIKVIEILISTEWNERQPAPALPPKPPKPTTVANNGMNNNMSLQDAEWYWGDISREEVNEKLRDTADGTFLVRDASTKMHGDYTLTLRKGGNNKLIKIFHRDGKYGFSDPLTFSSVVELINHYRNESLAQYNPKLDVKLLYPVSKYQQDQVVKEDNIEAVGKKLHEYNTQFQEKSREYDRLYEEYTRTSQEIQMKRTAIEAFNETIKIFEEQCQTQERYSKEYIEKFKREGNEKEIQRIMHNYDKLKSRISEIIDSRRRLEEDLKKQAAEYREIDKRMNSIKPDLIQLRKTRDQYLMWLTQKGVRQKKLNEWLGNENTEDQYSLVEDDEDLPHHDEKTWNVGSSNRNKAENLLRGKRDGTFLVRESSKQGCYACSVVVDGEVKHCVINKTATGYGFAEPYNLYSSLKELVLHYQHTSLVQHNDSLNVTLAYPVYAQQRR

| IC50 (PI3Kα) [nM] | Structure (SMILES) | EC50 (Balb/c splenic B cells; [1]) [nM] | EC50 (Balb/c splenic B cells) [nM] |
| --- | --- | --- | --- |
| 1000 to 10000 | C[C@H](Nc1nc(N)ncc1C#N)c1cc2cccc(Cl)c2c(=O)n1-c1ccccc1 [Compound 8, (S)-2-amino-4-((1-(8-chloro-1-oxo-2-phenyl-1,2-dihydroisoquinolin-3-yl)ethyl)amino)pyrimidine-5-carbonitrile] | < 100 |  |
| 1000 to 10000 | Cc1cccc2cc([C@H](C)Nc3nc(N)ncc3C#N)n(-c3cccc(F)c3)c(=O)c12 [Compound 15] | < 100 |  |
| 1000 to 10000 | Cc1ncc(-c2cccc3cc([C@H](C)Nc4nc(N)ncc4C#N)n(-c4cccc(F)c4)c(=O)c23)cn1 [Compound 20] | < 100 |  |
| 1000 to 10000 | C[C@H](Nc1nc(N)ncc1C#N)c1cc2cccc(-c3cccc(F)c3)c2c(=O)n1-c1ccccc1 [Compound 33] |  |  |
| 1000 to 10000 | Cc1ccc(-c2cccc3cc([C@H](C)Nc4nc(N)ncc4C#N)n(-c4ccccc4)c(=O)c23)cn1 [Compound 41] | < 100 |  |
| 1000 to 10000 | Cc1ncc(-c2cccc3cc([C@H](C)Nc4nc(N)ncc4C#N)n(-c4ccccc4)c(=O)c23)cn1 [Compound 55] | < 100 |  |
| 1000 to 10000 | C[C@H](Nc1nc(N)ncc1C#N)c1cc2cccc(-c3ccnnc3)c2c(=O)n1-c1ccccc1 [Compound 57] | < 100 |  |
| 1000 to 10000 | COc1cncc(-c2cccc3nc([C@H](C)Nc4nc(N)ncc4C#N)n(-c4ccccc4)c(=O)c23)c1 [Compound 65] |  |  |
| 1000 to 10000 | C#Cc1cccc2cc([C@H](C)Nc3nc(N)ncc3C#N)n(-c3ccccc3)c(=O)c12 [Compound 72] | < 100 |  |
| 1000 to 10000 | C[C@H](Nc1nc(N)ncc1C#N)c1cc2cccc(-c3cncc(OC(F)F)c3)c2c(=O)n1-c1ccccc1 [Compound 152] | < 100 |  |
| 1000 to 10000 | C[C@H](Nc1nc(N)ncc1C#N)c1cc2cccc(-c3ccc(O)nc3)c2c(=O)n1-c1ccccc1 [Compound 156] | < 100 |  |
| 1000 to 10000 | C[C@H](Nc1nc(N)ncc1C#N)c1cc2cccc(-c3cccc(S(C)(=O)=O)c3)c2c(=O)n1-c1ccccc1 [Compound 164] | < 100 |  |
| 1000 to 10000 | CNc1cc(-c2cccc3cc([C@H](C)Nc4nc(N)ncc4C#N)n(-c4ccccc4)c(=O)c23)ccn1 [Compound 185] | < 100 |  |
| 1000 to 10000 | COc1ccc(-c2cccc3cc([C@H](C)Nc4nc(N)ncc4C#N)n(-c4ccccc4)c(=O)c23)nc1 [Compound 206] | < 100 |  |
| 1000 to 10000 | CC#Cc1cccc2cc([C@H](C)Nc3nc(N)ncc3C#N)n(-c3ccccc3)c(=O)c12 [Compound 222] | < 100 |  |
| 1000 to 10000 | Cc1cc(-c2cccc3cc([C@H](C)Nc4nc(N)ncc4C#N)n(-c4ccccc4)c(=O)c23)cn(C)c1=O [Compound 231] | < 100 |  |
| 1000 to 10000 | C[C@H](Nc1nc(N)ncc1-c1ncco1)c1cc2cccc(Cl)c2c(=O)n1-c1ccccc1 [Compound 365] | < 100 |  |

The next lines start with the compound.

| Structure (SMILES) | IC50 (PI3Kα) [nM] | EC50 (Balb/c splenic B cells; [1]) [nM] | EC50 (Balb/c splenic B cells) [nM] |
| --- | --- | --- | --- |
| C[C@H](Nc1nc(N)ncc1C#N)c1cc2cccc(Cl)c2c(=O)n1-c1cccc(F)c1 [Compound 18] | 1000 to 10000 | < 100 |  |
| C[C@H](Nc1nc(N)ncc1C#N)c1nc2cccc(Cl)c2c(=O)n1-c1ccccc1 [Compound 59, (S)-2-amino-4-((1-(5-chloro-4-oxo-3-phenyl-3,4-dihydroquinazolin-2-yl)ethyl)amino)pyrimidine-5-carbonitrile] | 1000 to 10000 | < 100 |  |
| C#Cc1cnc(N)nc1N[C@@H](C)c1cc2cccc(Cl)c2c(=O)n1-c1ccccc1 [Compound 91] | 1000 to 10000 | < 100 |  |
| COc1ccc(-c2cccc3cc([C@H](C)Nc4nc(N)ncc4C#N)n(C4CC4)c(=O)c23)cn1 [Compound 108] | 1000 to 10000 | < 100 |  |
| COc1cc(-c2cccc3cc([C@H](C)Nc4nc(N)ncc4-c4cccnc4)n(-c4ccccc4)c(=O)c23)ccn1 [Compound 133] | 1000 to 10000 |  |  |
| Cc1csc(-c2cnc(N)nc2N[C@@H](C)c2cc3cccc(Cl)c3c(=O)n2-c2ccccc2)n1 [Compound 136] | 1000 to 10000 | < 100 |  |
| COc1cc(-c2cccc3cc([C@H](C)Nc4nc(N)ncc4-c4ccncc4)n(-c4ccccc4)c(=O)c23)ccn1 [Compound 169] | 1000 to 10000 | < 100 |  |
| COc1cc(-c2cccc3cc([C@H](C)Nc4nc(N)ncc4[N+](=O)[O-])n(-c4ccccc4)c(=O)c23)ccn1 [Compound 177] | 1000 to 10000 | < 100 |  |
| C[C@H](Nc1nc(N)ncc1C(=O)N(C)C)c1cc2cccc(Cl)c2c(=O)n1-c1ccccc1 [Compound 199] | 1000 to 10000 | < 100 |  |
| C[C@H](Nc1nc(N)ncc1C(=O)N(C)C)c1cc2cccc(-c3cnn(C)c3)c2c(=O)n1-c1ccccc1 [Compound 203] | 1000 to 10000 | < 100 |  |
| C[C@H](Nc1nc(N)ncc1C#N)c1cc2cccc(Cl)c2c(=O)n1-c1ccc(Cl)cc1 [Compound 217] | 1000 to 10000 | < 100 |  |
| COc1nc(-c2cnc(N)nc2N[C@@H](C)c2cc3cccc(Cl)c3c(=O)n2-c2ccccc2)cs1 [Compound 223] |  |  | < 100 |
| C[C@H](Nc1nc(N)ncc1C#N)c1cc2cccc(Cl)c2c(=O)n1-c1cscn1 [Compound 249] | 1000 to 10000 | < 100 |  |
| C[C@H](Nc1nc(N)ncc1C#N)c1cc2cccc(Cl)c2c(=O)n1-c1ccc(F)cc1F [Compound 255] | 1000 to 10000 |  |  |
| C[C@H](Nc1nc(N)ncc1C#N)c1cc2cccc(Cl)c2c(=O)n1-c1cc(F)ccc1F [Compound 264] | 1000 to 10000 |  |  |
| C[C@H](Nc1nc(N)ncc1C#N)c1cc2cccc(Cl)c2c(=O)n1-c1ccccc1F [Compound 267] | 1000 to 10000 |  |  |
| C[C@H](Nc1nc(N)ncc1C#N)c1cc2cccc(Cl)c2c(=O)n1C1CCCC1 [Compound 297] |  | < 100 |  |
| C[C@H](Nc1nc(N)ncc1C#N)c1cc2cccc(Cl)c2c(=O)n1-c1cccnc1 [Compound 306] |  | < 100 |  |
| CCn1c([C@H](C)Nc2nc(N)ncc2C#N)cc2cccc(Cl)c2c1=O [Compound 309] | 1000 to 10000 | < 100 |  |
| CC(C)n1c([C@H](C)Nc2nc(N)ncc2C#N)cc2cccc(Cl)c2c1=O [Compound 325] | 1000 to 10000 | < 100 |  |
| C[C@H](Nc1nc(N)ncc1C#N)c1cc2cccc(Cl)c2c(=O)n1-c1ccon1 [Compound 332] | 1000 to 10000 | < 100 |  |
| C[C@H](Nc1nc(N)ncc1-c1cscn1)c1cc2cccc(Cl)c2c(=O)n1-c1ccccc1 [Compound 360] | 1000 to 10000 | < 100 |  |
| C[C@H](Nc1nc(N)ncc1-c1cncs1)c1cc2cccc(Cl)c2c(=O)n1-c1ccccc1 [Compound 361] | 1000 to 10000 | < 100 |  |
| CCOc1nc(-c2cnc(N)nc2N[C@@H](C)c2cc3cccc(Cl)c3c(=O)n2-c2ccccc2)cs1 [Compound 369] | 1000 to 10000 | < 100 |  |
| CCOc1ncc(-c2cnc(N)nc2N[C@@H](C)c2cc3cccc(Cl)c3c(=O)n2-c2ccccc2)s1 [Compound 371] | 1000 to 10000 | < 100 |  |
| Cc1ncc(-c2cnc(N)nc2N[C@@H](C)c2cc3cccc(Cl)c3c(=O)n2-c2ccccc2)s1 [Compound 372] |  | < 100 |  |
| COc1cc(-c2cccc3cc([C@@H](C)Nc4nc(N)ncc4C#N)n(-c4ccccc4)c(=O)c23)ccn1 [Compound 380] |  | < 100 |  |
| C[C@H](Nc1cc(N)ncc1C(N)=O)c1cc2cccc(Cl)c2c(=O)n1-c1ccccc1 [Compound 431] |  | < 100 |  |
| COc1cc(-c2cccc3cc([C@H](C)Nc4nc(N)ncc4C(=O)N4CC(F)(F)C4)n(-c4ccccc4)c(=O)c23)ccn1 [Compound 432] |  | 100 to 1000 |  |
